{
  "source": "ChEMBL document CHEMBL1201862",
  "about": "“PubChem BioAssay data set” (2004)",
  "key": {"[1]": {"assay": "NIH-3T3 fibroblast cytotoxicity, dose response, cytotoxicity control, cell-based, fluorescence, Alamar Blue, secondary assay (AID 2327);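 also: NIH-3T3 mouse fibroblasts cultured with fluconazole at 8 µg/mL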", "assay_type": "functional"}, "[2]": {"assay": "microbe, parasite or virus in culture", "assay_type": "functional", "conditions": "Mycobacterium tuberculosis"}, "Nonstructural protein 1": {"biological_target": "Nonstructural protein 1 (Influenza A virus, UniProt Q194T2)", "assay_type": "functional, Influenza A virus (A/California/07/2009(H1N1))"}, "HT-1080": {"test_system": "HT-1080", "assay": "HT1080 cell viability loss – fluorescence readout (AID 620)", "assay_type": "functional, cell-based", "conditions": "Homo sapiens"}, "[3]": {"biological_target": "T1, Ubiquitin-conjugating enzyme E2 N (Homo sapiens, UniProt P61088)", "T1 sequence (P61088 whole entry)": "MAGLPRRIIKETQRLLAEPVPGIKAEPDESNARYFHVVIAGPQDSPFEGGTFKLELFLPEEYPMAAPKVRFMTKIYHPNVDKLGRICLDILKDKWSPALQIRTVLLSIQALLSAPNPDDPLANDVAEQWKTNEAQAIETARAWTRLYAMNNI", "assay_type": "functional"}, "[4]": {"assay": "viability of HCT116 lacking mutant beta-catenin – cell-based, human colon tumor, dose response (AID 1045);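 also: HCT116 colon tumor cells with beta catenin knocked out; cells exposed to compound for 60 hours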", "assay_type": "functional"}, "[5]": {"biological_target": "Luciferin 4-monooxygenase (Photinus pyralis, UniProt P08659)", "sequence (P08659 whole entry)": "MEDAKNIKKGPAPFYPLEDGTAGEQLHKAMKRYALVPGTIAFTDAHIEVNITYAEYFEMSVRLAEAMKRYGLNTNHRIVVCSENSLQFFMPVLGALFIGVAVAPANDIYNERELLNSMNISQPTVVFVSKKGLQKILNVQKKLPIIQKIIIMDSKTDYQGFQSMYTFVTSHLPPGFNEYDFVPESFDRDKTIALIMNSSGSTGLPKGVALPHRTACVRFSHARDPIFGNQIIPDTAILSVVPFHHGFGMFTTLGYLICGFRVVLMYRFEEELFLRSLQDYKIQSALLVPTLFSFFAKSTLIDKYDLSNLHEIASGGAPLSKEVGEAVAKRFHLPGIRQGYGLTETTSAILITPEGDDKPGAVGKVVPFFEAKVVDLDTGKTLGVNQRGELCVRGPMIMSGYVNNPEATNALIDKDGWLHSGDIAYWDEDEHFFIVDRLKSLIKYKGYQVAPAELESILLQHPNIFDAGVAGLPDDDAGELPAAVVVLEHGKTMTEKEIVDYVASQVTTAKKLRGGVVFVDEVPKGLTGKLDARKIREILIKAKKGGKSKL", "assay": "Counter Screen for Luciferase-based Assay Positives. [Related pubchem assays: 620, 618, 411 ]"}, "[6]": {"assay": "HPDE-C7 pancreatic duct cell viability loss – fluorescence, HTS (AID 430)", "assay_type": "functional, cell-based", "conditions": "Homo sapiens"}, "[7]": {"assay": "viability of PTEN-deleted HCT116 cells – cell-based, HCT116 PTEN knockout, dose response (AID 1047);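 also: HCT116 colon tumor cells with PTEN knocked out; cells exposed to compound for 60 hours before readout; potency for loss of cell viability measured by luminescence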", "assay_type": "functional"}, "[8]": {"assay": "fluconazole-exposed Candida albicans growth modulators – fluorescence, retest, confirmation (AID 2467)", "assay_type": "functional, cell-based"}, "[9]": {"assay": "viability loss of HPDE-C7K cells – cell-based, fluorescence, HTS, primary screen (AID 431)", "assay_type": "functional", "conditions": "Homo sapiens"}, "Beta-galactosidase": {"biological_target": "Beta-galactosidase (Escherichia coli, UniProt Q8VNN2)", "assay": "detection-enzyme interference by beta-gal modulators – biochemical, E. coli enzyme, set 3, artefact control for CCR6 antagonist project, dose response (AID 504712)", "assay_type": "functional"}, "[10]": {"biological_target": "Voltage-dependent T-type calcium channel subunit alpha-1H (Homo sapiens, UniProt O95180)", "assay": "human CACNA1H calcium influx blockade – cell-based, synthetic library set 1, calcium flux (AID 493022)", "assay_type": "functional"}, "[11]": {"biological_target": "Envelope glycoprotein gp160 (Human immunodeficiency virus 1, UniProt Q6QLK5)", "assay": "cell-free HIV fusion peptide-binding blockers – biochemical, uHTS, fluorescence dequenching, […] (AID 1986)"}, "[12]": {"biological_target": "T2, Tyrosine-protein phosphatase non-receptor type 22 (Homo sapiens, UniProt Q9Y2R2)", "T2 sequence (Q9Y2R2 whole entry)": "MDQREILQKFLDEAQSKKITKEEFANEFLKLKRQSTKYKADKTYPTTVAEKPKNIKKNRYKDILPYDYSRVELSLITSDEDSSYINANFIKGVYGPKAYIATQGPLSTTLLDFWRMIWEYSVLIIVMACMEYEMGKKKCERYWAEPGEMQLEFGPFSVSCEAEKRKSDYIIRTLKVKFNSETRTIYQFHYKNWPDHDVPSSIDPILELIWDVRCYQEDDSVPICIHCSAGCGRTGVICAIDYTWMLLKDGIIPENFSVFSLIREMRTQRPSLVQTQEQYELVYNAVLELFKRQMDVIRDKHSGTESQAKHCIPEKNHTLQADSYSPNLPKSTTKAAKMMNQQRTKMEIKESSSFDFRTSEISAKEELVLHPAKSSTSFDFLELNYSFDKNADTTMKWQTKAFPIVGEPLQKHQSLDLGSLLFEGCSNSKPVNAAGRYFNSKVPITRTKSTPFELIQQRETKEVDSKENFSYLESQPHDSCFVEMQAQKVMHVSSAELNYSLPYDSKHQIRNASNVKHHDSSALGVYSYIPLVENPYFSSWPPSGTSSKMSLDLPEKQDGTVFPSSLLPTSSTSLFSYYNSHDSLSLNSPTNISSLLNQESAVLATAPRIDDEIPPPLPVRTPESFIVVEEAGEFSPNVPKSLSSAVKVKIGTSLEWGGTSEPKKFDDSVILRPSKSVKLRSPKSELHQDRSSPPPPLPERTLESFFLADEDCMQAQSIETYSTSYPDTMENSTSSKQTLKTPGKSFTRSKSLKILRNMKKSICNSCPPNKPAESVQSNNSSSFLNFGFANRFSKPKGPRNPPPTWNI", "assay_type": "functional"}, "[13]": {"biological_target": "T2, Tyrosine-protein phosphatase non-receptor type 22", "assay_type": "functional", "remark": "listed apart in the source"}, "[14]": {"biological_target": "T3, Tyrosine-protein phosphatase non-receptor type 7 (Homo sapiens, UniProt P35236)", "T3 sequence (P35236 whole entry)": "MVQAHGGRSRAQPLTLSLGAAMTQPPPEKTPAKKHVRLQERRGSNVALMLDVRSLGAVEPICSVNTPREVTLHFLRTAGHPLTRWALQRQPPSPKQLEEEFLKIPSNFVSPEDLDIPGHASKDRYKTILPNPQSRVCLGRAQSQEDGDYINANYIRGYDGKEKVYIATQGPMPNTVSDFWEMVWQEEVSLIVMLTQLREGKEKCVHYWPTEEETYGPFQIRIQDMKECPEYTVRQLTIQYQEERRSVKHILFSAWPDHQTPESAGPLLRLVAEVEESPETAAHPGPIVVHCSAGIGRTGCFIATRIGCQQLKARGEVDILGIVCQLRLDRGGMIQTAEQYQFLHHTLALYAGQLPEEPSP", "assay_type": "functional"}, "[15]": {"biological_target": "Eukaryotic translation initiation factor 4E (Mus musculus, UniProt P63073)", "sequence (P63073 whole entry)": "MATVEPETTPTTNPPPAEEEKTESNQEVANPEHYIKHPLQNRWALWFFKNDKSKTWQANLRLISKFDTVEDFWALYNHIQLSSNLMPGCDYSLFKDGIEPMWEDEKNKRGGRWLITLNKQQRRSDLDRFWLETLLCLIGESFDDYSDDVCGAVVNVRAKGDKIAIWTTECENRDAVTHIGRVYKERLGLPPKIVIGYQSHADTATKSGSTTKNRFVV", "assay": "blockers of eIF4G binding by eIF4E – biochemical, TR-FRET, dose response (AID 855);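 also: potency for disrupting eIF4E binding to eIF4GI seen as loss of FRET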", "assay_type": "functional"}, "[16]": {"biological_target": "T2, Tyrosine-protein phosphatase non-receptor type 22", "assay": "PTPN22 lymphoid phosphatase activity blockers – biochemical, fluorescence intensity, uHTS (AID 1779)"}, "[17]": {"biological_target": "T4, Voltage-gated N-type calcium channel alpha-1B subunit/Amyloid beta A4 precursor protein-binding family A member 1 (Homo sapiens, UniProt Q00975+Q02410)", "T4 sequence (Q00975 whole entry)": "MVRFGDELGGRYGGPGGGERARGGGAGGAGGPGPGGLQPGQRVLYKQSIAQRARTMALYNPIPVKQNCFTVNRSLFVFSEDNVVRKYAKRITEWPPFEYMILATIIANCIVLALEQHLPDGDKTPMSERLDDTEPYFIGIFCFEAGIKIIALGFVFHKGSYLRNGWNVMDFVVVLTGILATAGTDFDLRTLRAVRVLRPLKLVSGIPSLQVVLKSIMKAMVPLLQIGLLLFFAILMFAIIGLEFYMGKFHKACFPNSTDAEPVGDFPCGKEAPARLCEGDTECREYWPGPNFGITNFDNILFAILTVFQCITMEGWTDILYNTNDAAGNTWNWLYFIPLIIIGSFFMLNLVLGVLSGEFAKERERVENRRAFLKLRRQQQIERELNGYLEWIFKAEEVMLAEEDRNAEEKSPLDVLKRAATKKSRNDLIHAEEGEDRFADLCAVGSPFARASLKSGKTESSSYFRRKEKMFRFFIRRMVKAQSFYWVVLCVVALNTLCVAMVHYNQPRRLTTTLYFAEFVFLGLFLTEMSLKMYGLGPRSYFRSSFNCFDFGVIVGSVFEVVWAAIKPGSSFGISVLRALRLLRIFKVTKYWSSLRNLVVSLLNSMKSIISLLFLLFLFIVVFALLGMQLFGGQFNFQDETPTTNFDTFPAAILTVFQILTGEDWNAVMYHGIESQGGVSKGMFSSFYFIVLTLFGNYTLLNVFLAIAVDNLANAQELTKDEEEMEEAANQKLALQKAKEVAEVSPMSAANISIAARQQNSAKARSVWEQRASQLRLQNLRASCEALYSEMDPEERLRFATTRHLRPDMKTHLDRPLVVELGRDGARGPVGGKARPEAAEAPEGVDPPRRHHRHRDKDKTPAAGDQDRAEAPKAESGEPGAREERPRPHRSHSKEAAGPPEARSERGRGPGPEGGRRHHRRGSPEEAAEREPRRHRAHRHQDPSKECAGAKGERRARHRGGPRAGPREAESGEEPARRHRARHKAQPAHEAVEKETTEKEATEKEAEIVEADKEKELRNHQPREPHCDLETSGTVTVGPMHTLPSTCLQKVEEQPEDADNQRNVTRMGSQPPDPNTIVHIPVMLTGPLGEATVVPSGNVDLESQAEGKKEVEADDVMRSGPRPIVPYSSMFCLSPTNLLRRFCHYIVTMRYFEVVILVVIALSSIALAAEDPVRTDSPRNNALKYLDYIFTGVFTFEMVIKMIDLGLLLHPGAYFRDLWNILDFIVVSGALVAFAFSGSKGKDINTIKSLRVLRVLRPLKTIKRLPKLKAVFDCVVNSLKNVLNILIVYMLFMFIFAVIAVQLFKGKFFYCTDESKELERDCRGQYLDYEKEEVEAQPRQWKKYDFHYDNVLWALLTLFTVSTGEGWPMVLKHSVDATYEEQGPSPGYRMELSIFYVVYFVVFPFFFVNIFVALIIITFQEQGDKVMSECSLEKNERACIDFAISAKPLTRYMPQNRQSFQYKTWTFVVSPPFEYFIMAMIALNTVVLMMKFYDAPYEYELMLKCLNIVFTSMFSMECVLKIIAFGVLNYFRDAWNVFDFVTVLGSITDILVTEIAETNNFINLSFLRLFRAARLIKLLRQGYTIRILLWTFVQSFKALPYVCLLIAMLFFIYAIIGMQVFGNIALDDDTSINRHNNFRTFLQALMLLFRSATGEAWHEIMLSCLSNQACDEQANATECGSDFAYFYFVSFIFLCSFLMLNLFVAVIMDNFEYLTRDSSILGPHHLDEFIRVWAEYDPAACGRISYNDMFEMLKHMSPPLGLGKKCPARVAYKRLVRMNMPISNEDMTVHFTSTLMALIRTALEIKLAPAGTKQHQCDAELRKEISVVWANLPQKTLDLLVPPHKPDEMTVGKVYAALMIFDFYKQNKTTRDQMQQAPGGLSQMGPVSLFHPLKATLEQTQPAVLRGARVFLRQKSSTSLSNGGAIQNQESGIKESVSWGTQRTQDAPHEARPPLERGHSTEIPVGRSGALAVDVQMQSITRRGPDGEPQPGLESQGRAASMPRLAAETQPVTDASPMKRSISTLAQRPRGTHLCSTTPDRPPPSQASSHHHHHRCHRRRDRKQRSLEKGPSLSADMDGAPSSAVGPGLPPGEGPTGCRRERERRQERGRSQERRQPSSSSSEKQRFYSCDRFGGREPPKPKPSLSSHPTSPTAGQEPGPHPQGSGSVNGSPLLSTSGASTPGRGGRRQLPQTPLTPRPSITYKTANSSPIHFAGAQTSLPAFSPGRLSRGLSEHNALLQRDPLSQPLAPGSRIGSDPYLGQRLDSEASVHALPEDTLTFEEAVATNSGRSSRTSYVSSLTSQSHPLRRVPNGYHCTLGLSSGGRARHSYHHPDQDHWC", "T4 sequence (Q02410 whole entry)": "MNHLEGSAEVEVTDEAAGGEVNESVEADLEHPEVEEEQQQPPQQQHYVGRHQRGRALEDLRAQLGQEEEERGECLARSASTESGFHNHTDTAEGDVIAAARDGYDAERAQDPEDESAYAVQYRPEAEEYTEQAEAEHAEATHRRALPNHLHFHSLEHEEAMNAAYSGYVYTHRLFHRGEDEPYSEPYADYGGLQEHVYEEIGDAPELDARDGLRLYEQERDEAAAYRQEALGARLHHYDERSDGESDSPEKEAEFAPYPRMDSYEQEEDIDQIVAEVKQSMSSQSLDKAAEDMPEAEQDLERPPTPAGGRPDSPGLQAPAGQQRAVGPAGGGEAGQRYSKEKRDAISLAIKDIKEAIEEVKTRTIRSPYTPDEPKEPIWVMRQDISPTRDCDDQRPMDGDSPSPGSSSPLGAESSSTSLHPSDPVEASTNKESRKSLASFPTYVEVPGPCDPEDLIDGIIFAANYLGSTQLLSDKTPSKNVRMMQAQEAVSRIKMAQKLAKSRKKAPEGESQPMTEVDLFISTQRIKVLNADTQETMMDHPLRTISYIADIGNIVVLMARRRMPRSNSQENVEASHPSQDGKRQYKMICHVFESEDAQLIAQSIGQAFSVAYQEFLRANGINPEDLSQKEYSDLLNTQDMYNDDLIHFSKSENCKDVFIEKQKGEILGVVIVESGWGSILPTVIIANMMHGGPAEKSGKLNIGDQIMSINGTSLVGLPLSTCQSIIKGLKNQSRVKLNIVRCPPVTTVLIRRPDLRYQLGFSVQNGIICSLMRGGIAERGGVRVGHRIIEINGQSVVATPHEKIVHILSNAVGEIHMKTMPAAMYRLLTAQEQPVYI", "assay_type": "protein assay"}, "[18]": {"biological_target": "T4, Voltage-gated N-type calcium channel alpha-1B subunit/Amyloid beta A4 precursor protein-binding family A member 1", "assay_type": "protein assay", "remark": "listed apart in the source"}, "Large T antigen": {"biological_target": "Large T antigen (Simian virus 40, UniProt P03070)", "sequence (P03070 whole entry)": "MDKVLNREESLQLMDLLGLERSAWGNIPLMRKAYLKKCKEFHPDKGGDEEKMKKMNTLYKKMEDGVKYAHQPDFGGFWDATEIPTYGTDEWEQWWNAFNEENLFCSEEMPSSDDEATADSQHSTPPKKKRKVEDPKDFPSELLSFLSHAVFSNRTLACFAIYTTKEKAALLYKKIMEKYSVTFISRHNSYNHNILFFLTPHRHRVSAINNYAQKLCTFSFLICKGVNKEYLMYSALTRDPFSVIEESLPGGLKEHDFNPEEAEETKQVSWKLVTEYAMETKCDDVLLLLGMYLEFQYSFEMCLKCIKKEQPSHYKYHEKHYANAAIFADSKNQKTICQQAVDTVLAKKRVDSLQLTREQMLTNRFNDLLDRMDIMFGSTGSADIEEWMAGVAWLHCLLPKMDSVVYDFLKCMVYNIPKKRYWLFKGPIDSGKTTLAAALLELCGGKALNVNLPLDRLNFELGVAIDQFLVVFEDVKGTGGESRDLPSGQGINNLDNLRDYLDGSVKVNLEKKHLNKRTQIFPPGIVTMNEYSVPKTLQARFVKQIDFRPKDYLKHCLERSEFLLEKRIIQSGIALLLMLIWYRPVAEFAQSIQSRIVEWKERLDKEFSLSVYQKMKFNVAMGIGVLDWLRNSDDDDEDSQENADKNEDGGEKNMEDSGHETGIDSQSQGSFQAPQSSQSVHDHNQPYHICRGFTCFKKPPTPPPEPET", "assay_type": "functional, Betapolyomavirus macacae"}, "[19]": {"biological_target": "FAD-linked sulfhydryl oxidase ALR (Homo sapiens, UniProt P55789)", "sequence (P55789 whole entry)": "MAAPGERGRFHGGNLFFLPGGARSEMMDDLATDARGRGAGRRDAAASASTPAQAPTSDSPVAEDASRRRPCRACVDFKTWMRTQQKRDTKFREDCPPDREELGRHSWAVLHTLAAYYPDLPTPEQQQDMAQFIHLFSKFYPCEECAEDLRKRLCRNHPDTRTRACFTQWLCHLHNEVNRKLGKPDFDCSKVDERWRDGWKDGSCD", "assay": "ALR-catalysed DTT oxidation blockers – biochemical, H2O2 detection, luminescence, cherry-pick, dose response (AID 493248)"}, "[20]": {"biological_target": "DNA dC->dU-editing enzyme APOBEC-3G (Homo sapiens, UniProt Q9HC16)", "assay": "Dose Response confirmation of small molecule APOBEC3G DNA Deaminase Inhibitors via a fluorescence-based single-stranded DNA deaminase assay. [Related pubchem assays (depositor defined):AID493012, AID493028]", "assay_type": "functional"}, "[21]": {"biological_target": "DNA dC->dU-editing enzyme APOBEC-3A (Homo sapiens, UniProt P31941)", "sequence (P31941 whole entry)": "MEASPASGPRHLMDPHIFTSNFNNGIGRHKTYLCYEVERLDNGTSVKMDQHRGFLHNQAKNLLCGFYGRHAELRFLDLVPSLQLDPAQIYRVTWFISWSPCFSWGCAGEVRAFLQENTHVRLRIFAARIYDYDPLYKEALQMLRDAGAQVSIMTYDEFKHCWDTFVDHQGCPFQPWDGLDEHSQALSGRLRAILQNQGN", "assay": "A3A deaminase inhibition for selectivity – biochemical, dose response (AID 504722)", "assay_type": "functional"}, "[22]": {"biological_target": "T5, Short transient receptor potential channel 4 (Mus musculus, UniProt Q9QUQ5)", "T5 sequence (Q9QUQ5 whole entry)": "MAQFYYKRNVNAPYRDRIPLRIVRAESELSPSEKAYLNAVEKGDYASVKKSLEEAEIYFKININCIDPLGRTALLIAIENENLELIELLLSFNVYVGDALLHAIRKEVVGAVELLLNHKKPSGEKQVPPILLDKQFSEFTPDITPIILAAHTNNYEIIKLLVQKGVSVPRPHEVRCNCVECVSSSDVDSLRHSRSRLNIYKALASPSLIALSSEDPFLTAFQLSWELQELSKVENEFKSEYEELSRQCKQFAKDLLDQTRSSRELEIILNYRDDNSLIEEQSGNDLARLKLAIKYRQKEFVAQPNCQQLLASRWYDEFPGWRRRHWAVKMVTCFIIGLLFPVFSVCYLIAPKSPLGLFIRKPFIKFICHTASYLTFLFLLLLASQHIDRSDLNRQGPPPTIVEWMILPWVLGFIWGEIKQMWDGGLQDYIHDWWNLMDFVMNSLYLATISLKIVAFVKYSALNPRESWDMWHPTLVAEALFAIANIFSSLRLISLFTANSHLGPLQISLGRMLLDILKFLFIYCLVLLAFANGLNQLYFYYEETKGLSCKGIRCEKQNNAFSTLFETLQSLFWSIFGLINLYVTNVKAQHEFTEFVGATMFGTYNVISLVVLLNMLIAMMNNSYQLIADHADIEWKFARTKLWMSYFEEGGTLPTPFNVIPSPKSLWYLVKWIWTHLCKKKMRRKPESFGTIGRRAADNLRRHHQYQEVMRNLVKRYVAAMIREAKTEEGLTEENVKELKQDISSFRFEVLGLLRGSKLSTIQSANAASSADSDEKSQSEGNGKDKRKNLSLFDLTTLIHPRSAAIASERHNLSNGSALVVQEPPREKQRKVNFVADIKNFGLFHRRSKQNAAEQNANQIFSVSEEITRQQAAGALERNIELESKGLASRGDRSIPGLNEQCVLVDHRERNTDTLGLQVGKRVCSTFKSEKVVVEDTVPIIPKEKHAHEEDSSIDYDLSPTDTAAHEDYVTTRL", "assay": "potentiation of DAMGO-evoked TRPC4 calcium signal – cell-based, HEK293 TRPC4/mu-opioid, Fluo-4 calcium, EC20 DAMGO, dose response (AID 434941)", "assay_type": "functional"}},
  "note": "The source made the active and inactive calls.",
  "data": [
    {"smiles": "CN1CCN(CC(=O)N2CCn3c4c(c5cc(C6CCCCC6)ccc53)CCCC42)CC1", "note": "(stereo unspecified)", "values": [
      {"measurement": "EC50", "setting": "[1]", "result": "> 150 µM (inconclusive)"},
      {"measurement": "CC50", "setting": "[2]", "result": "6.93 µM (active)"},
      {"measurement": "IC50", "setting": "Nonstructural protein 1", "result": "18.9 µM (active)"},
      {"measurement": "EC50", "setting": "HT-1080", "result": "14.7 µM (active)"},
      {"measurement": "IC50", "setting": "[3]", "result": "> 20 µM (inactive)"},
      {"measurement": "EC50", "setting": "[4]", "result": "3.56 µM (active)"},
      {"measurement": "EC50", "setting": "[5]", "result": "0.84 µM (active)"},
      {"measurement": "EC50", "setting": "[6]", "result": "3.48 µM (active)"},
      {"measurement": "EC50", "setting": "[7]", "result": "3.99 µM (active)"},
      {"measurement": "EC50", "setting": "[8]", "result": "> 38 µM (not active)"},
      {"measurement": "EC50", "setting": "[9]", "result": "4.39 µM (active)"},
      {"measurement": "IC50", "setting": "Beta-galactosidase", "result": "> 66.6 µM (inactive)"}
    ]},
    {"smiles": "O=C(COc1ccccc1Cl)Nc1nnc(-c2ccc3c(c2)OCO3)o1", "values": [
      {"measurement": "EC50", "setting": "[10]", "result": "3 µM (active)"}
    ]},
    {"smiles": "CCOc1cc(/C=N/NC(=O)c2ccc(-c3csc(Nc4ccc(C)cc4)n3)cc2)ccc1OCC(=O)O", "values": [
      {"measurement": "IC50", "setting": "[11]", "result": "7.29 µM (active)"},
      {"measurement": "IC50", "setting": "[12]", "result": "6.63 µM (active)"},
      {"measurement": "IC50", "setting": "[13]", "result": "4.68 µM (active)"},
      {"measurement": "IC50", "setting": "[14]", "result": "3.93 µM (active)"},
      {"measurement": "IC50", "setting": "[15]", "result": "50 µM (inactive)"},
      {"measurement": "IC50", "setting": "[16]", "result": "8.71 µM (active)"},
      {"measurement": "IC50", "setting": "[17]", "result": "49.1 µM (active)"},
      {"measurement": "IC50", "setting": "[18]", "result": "11.1 µM (active)"}
    ]},
    {"smiles": "COc1cccc(/C=N/n2c(S)nnc2-c2cc(C)[nH]n2)c1O", "values": [
      {"measurement": "IC50", "setting": "Large T antigen", "result": "16 µM (active)"},
      {"measurement": "AC50", "setting": "[19]", "result": "3.54 µM (active)"},
      {"measurement": "IC50", "setting": "[20]", "result": "4.07 µM (active)"},
      {"measurement": "IC50", "setting": "[21]", "result": "> 100 µM (inactive)"}
    ]},
    {"smiles": "Cc1cccc(/C=N/NC(=O)c2cc(Br)ccc2O)n1", "values": [
      {"measurement": "EC50", "setting": "[22]", "result": "4.22 µM (active)"}
    ]}
  ]
}
